# Reference: patent US20260158014A1, “METHODS OF ADMINISTERING VOXELOTOR” (Global Blood Therapeutics, Inc., priority 2021, published 2026)
# Key:
# [1] = molecular target: MATE2-K (Homo sapiens, UniProt Q86VL8); test: In vitro transporter study; assay type: in vitro ADME
# [2] = molecular target: hemoglobin S (HbS) (Homo sapiens, UniProt P68871+P69905, E7V); test: HbS binding and polymerization inhibition
# [3] = PK in subjects with renal impairment; assay type: in vivo, human
# Experimental: Following a single 900 mg dose of voxelotor, whole blood exposures in subjects with severe renal impairment (eGFR <30 mL/min/1.73 m^2) were 25% lower compared to healthy controls.
# [4] = tested on: rats; test: Fertility and early embryonic development study; assay type: in vivo, rat
# Experimental: In a fertility and early embryonic development study, voxelotor was administered orally to rats at 15, 50, and 250 mg/kg/day. Males were dosed 28 days prior to mating through cohabitation and females were dosed 14 days prior to mating through gestation Day 7.
# [5] = Voxelotor in milk of lactating rats; assay type: in vivo, rat
# [6] = molecular target: BSEP (Homo sapiens, UniProt O95342); test: In vitro transporter study; assay type: in vitro ADME
# [7] = molecular target: OAT1 (Homo sapiens, UniProt Q4U2R8); test: In vitro transporter study; assay type: in vitro ADME
# [8] = tested on: CYP3A4, CYP3A5, CYP2B6, CYP2C19, CYP2C9, UGT1A1, and UGT1A9; test: Metabolism, in vitro and in vivo studies; assay type: in vitro ADME
# [9] = tested on: patients with SCD aged 4 to 11 years; test: Open-label Phase 2 trial (part C): Hb response and hemolysis markers; assay type: in vivo, human
# Description: Patients and treatment: Patients with SCD were screened at 15 study sites in the United States, Lebanon, and the United Kingdom. Key inclusion criteria included patients with SCD (homozygous sickle cell disease [HbSS] or HbSβ^0 genotypes), aged 4 to 11 years, and with hemoglobin (Hb) concentrations ≤10.5 g/dL at baseline. Concomitant hydroxyurea was allowed if the dose was stable for ≥3 months at enrollment, with no anticipated need for dose adjustment during the study. There was no eligibility requirement regarding prior VOCs. Patients who were receiving chronic red blood cell transfusion therapy, had received a transfusion in the past 30 days, or had been hospitalized for a VOC, acute chest syndrome, splenic sequestration crisis, or dactylitis within 14 days before providing informed consent were excluded.
# All patients received dispersible voxelotor tablets. Patients aged 4 to 11 years received once-daily voxelotor weight-based-dosing (Table 1).
# Statistical analyses: All efficacy and safety assessments were summarized with descriptive statistics. Population PK analyses using nonlinear mixed-effects modeling were performed to characterize voxelotor PK in plasma and whole blood.
# Patients 4 to <12 years received tablets for oral suspension based on body weight at baseline. OXBRYTA doses of 600 mg, 900 mg, or 1,500 mg once daily were administered to patients weighing 10 kg to <20 kg, 20 kg to <40 kg, or ≥40 kg, respectively. Patients 12 to <17 years received OXBRYTA 1,500 mg once daily.
# Patients were included if their baseline hemoglobin (Hb) was <10.5 g/dL. Eligible patients on stable doses of hydroxyurea for at least 90 days were allowed to continue hydroxyurea therapy throughout the study.
# Efficacy was based on Hb response rate, which is defined as a Hb increase of >1 g/dL from baseline to Week 24.
# [10] = molecular target: OATP1B1 (Homo sapiens, UniProt Q9Y6L6); test: In vitro transporter study; assay type: in vitro ADME
# [11] = tested on: bacterial reverse mutation; test: Reverse mutation bacterial (Ames) test; assay type: cell-based
# [12] = molecular target: OATP1B3 (Homo sapiens, UniProt Q9NPD5); test: In vitro transporter study; assay type: in vitro ADME
# [13] = Clinical pharmacokinetics after oral administration; assay type: in vivo, human
# [14] = 72-week population pharmacokinetic analysis in patients with SCD; assay type: in vivo, human
# [15] = tested on: patients with SCD; test: HOPE trial: safety; assay type: in vivo, human
# Experimental: The safety of OXBRYTA was evaluated in the HOPE trial based on data from 88 patients with SCD who received OXBRYTA 1,500 mg and 91 patients who received placebo orally once daily [see Clinical Studies (14.1)]. Seventy-four patients received OXBRYTA 1,500 mg once daily for ≥24 weeks, 65 patients for ≥48 weeks, and 63 patients completed the 72-week treatment period.
# In patients who received OXBRYTA 1,500 mg once daily, the median age was 24 years (range:12 to 59 years); 65% female; 66% Black or African American and 23% Arab/Middle Eastern; and 65% receiving hydroxyurea at baseline.
# [16] = tested on: RasH2 transgenic mice; test: 26-week carcinogenicity study; assay type: in vivo, mouse; conditions: 26 weeks; oral 30, 150, or 500 mg/kg/day
# [17] = molecular target: CYP2B6 (Homo sapiens, UniProt P20813); test: In vitro CYP enzyme study; assay type: in vitro ADME
# [18] = tested on: rat; test: Rat micronucleus assay; conditions: in vivo
# [19] = 4 to 11 years, weight-based dosing
compound,measurement,setting,value
"CC(C)n1nccc1-c1ncccc1COc1cccc(O)c1C=O [voxelotor, 2-hydroxy-6-((2-(1-isopropyl-1H-pyrazol-5-yl)pyridin-3-yl)methoxy)benzaldehyde]",MATE2-K inhibition,[1],not an inhibitor
same,HbS polymerization,[2],dose-dependent inhibition
same,effect of renal function on excretion,"[3]; human, in vivo",no clinically significant effect
same,"unbound plasma concentrations, severe renal impairment vs healthy controls",[3]; single 900 mg dose,comparable
same,whole blood exposures lower in severe renal impairment vs healthy controls,"[3]; single 900 mg dose, eGFR <30 mL/min/1.73 m^2",25%
same,sperm morphology,[4]; 250 mg/kg/day,changes in sperm morphology
same,sperm motility,[4]; 250 mg/kg/day,decreased
same,fertility or reproductive function,"[4]; oral 15, 50, 250 mg/kg/day",no effect on fertility or reproductive function
same,"exposure at 250 mg/kg/day relative to human exposure at 1,500 mg/day","[4]; rat, in vivo",approximately 5 times
same,presence in milk,[5]; lactating rats,detected in milk
same,plasma concentrations relative to concentration in milk,[5]; rats,higher
same,BSEP inhibition,[6],not an inhibitor
same,substrate of BSEP,[6],not a substrate
same,OAT1 inhibition,[7],not an inhibitor
same,enzymes mediating metabolism,[8],"CYP3A4, CYP3A5, CYP2B6, CYP2C19, CYP2C9, UGT1A1, and UGT1A9"
same,mean change in Hb from baseline at week 24,"[9]; 4 to 11 years, once-daily weight-based 600/900/1500 mg dispersible tablets, n=34",1.0 g/dL
same,patients with Hb response (>1.0 g/dL increase from baseline) at week 2,[9]; [19],54.5%
same,patients with an increase in Hb of any magnitude from baseline at week 24,[9]; [19],82%
same,patients with >2.0 g/dL increase in Hb from baseline at week 24,"[9]; 4 to 11 years, weight-based dosing, n=7/34",21%
same,patients with >1.5 g/dL increase in Hb from baseline at week 24,"[9]; 4 to 11 years, weight-based dosing, n=12/34",35%
same,patients with Hb response (increase >1.0 g/dL from baseline) at week 24,"[9]; 4 to 11 years, weight-based dosing, n=34",47.1%
same,Hb response rate (Hb increase >1 g/dL from baseline to Week 24),[9]; patients 4 to <12 years who took at least one dose (16/45),36%
same,mean percent change from baseline in indirect bilirubin,"[9]; week 24, n=28",−38.6%
same,mean percent change from baseline in percent reticulocyte count,"[9]; week 24, n=31",−3.25%
same,mean percent change from baseline in lactate dehydrogenase,"[9]; week 24, n=32",−2.6%
same,OATP1B1 inhibition,[10],not an inhibitor
same,substrate of OATP1B1,[10],not a substrate
same,"genotoxicity, Ames test",[11],not genotoxic
same,OATP1B3 inhibition,[12],not an inhibitor
same,substrate of OATP1B3,[12],not a substrate
same,time to steady-state after repeated administration,[13]; patients with SCD,≤ 8 days
same,dose linearity of PK,"[13]; single or multiple doses, whole blood, plasma, RBCs",linear
same,"AUC0-24 h, whole blood","[14]; 1,500 mg, geometric mean","3,830 μg · hr/mL"
same,"Cmax, whole blood","[14]; 1,500 mg, geometric mean",180 µg/mL
same,"differences in PK based on age (12 to 59 years), sex, body weight (28 to 135 kg), mild to severe renal impairment","[14]; human, in vivo",No clinically significant differences
same,Cmax,"[14]; human, plasma, oral, 1500 mg, 1,500 mg, geometric mean",14000 ng/mL
same,half-life,"[14]; human, plasma, oral, 1500 mg, 1,500 mg, geometric mean, patients with SCD, read-out: Half-life (terminal elimination), plasma (converted)",2320 min
same,AUC(0-t),"[14]; human, plasma, oral, 1500 mg, 1,500 mg, geometric mean, read-out: AUC0-24 h, plasma",278 µg·h/mL
same,Vd,"[14]; human, plasma, oral, read-out: apparent volume of distribution of the central compartment",333 L
same,apparent volume of distribution of the peripheral compartment,[14]; plasma,72.3 L
same,apparent oral clearance,"[14]; plasma, patients with SCD",6.1 L/h
same,"exposures in whole blood and plasma, pediatric patients 4 to <17 years vs adults",[14]; recommended dosage,similar
same,"serious adverse reactions, patients","[15]; 1,500 mg once daily, 3/88",3%
same,"permanent discontinuation due to an adverse reaction (Grades 1-4), patients","[15]; 1,500 mg once daily, 4/88",5%
same,Adverse reaction: Abdominal Pain,"[15]; 1,500 mg, N=88",23%
same,Adverse reaction: Diarrhea,"[15]; 1,500 mg, N=88",23%
same,Adverse reaction: Headache,"[15]; 1,500 mg, N=88",32%
same,Adverse reaction: Nausea,"[15]; 1,500 mg, N=88",19%
same,Adverse reaction: Pyrexia,"[15]; 1,500 mg, N=88",15%
same,Adverse reaction: Rash,"[15]; 1,500 mg, N=88",15%
same,"dosage modifications (dose reduction or dosing interruption) due to an adverse reaction, patients",[15]; 42/88,48%
same,carcinogenicity,[16],not carcinogenic
same,CYP2B6 induction,[17],inducer
same,CYP2B6 inhibition,[17],reversible and time-dependent inhibitor
same,"genotoxicity, rat micronucleus assay",[18],not genotoxic
